Series [1] has as its system T. cruzi extracellular amastigotes. As to the kind of experiment: Extracellular amastigote assay (ATPlite luminescence, 48 hours). The format is cell-based. The note with it: Trypanosoma cruzi. As for the experimental part: (§1) The in vitro anti-T. cruzi amastiogote activity assay was performed and optimized based on the protocol described previously. The change in tdTomato fluorescence intensity was determined as a measurement of growth over 72 hours of culture. For assaying drug effects on extracellular amastigotes, trypomastigotes were collected from infected Vero cell cultures and converted in acidic media as previously described. Amastigotes (50,000/well) were incubated with 2-fold serial dilutions of compounds for 48 hours. The ATP production was used as an indication of growth in this case, and was measured by ATPlite Luminescence ATP Detection Assay System (PerkinElmer). Both fluorescence and luminescence were read using a BioTek Synergy Hybrid Multi-Mode reader equipped with the software Gene5 v 2.0 (BioTek). The dose-response curve was generated by […] analysis with GraphPad Prism v9.4.0 (GraphPad Software).

Series [2] concerns metallocarboxypeptidase 2 disrupted T. cruzi intracellular amastigote. The experiment in a line: Intracellular amastigote assay with metallocarboxypeptidase 2 (TcCLB.504045.60) disrupted T. cruzi. The format is cell-based, Trypanosoma cruzi. The conditions noted are these: Fig. S1. From the text:
activity of AN14353 on intracellular amastigote (b). Representative microphotographs of assays repeated at least three times are shown. Data are presented as mean values +/- SEM; n= 3 […]
(1 picture or pasted object on this page, not shown here)

Series [3] concerns T. cruzi (naturally acquired infection). As to the kind of experiment: NHP treatment study: hemoculture. In kind it is in vivo, rhesus macaques (Macaca mulatta). The conditions noted are these: 30 mg/kg/day oral 60 days; all time points after end of treatment. The method, then: (§2) A total of 22 rhesus macaques that had been confirmed to be serologically- and PCR-positive for T. cruzi were utilized in these studies. Using 19 animals in the treatment group provided 85% power of detecting 100% efficacy. […] The remaining three animals on the study were maintained as untreated control animals and received food treats but were not dosed with AN15368.
For hemoculture determinations, peripheral blood from macaques was collected and cultured at 26°C in supplemented liver digest neutralized tryptose medium as described previously. The presence of T. cruzi parasites was assessed every week for 3 months under an inverted microscope. T. cruzi DTU of the macaque isolates was determined as previously described.

The test system is the same in series [4]. As to the kind of experiment: NHP treatment study: blood qPCR for T. cruzi DNA. In kind it is in vivo, rhesus macaques (Macaca mulatta).
Description: as §2
Blood samples from each macaque were collected at various time points and processed for quantification of T. cruzi DNA by real-time qPCR. Between 8-10ml of whole blood collected in EDTA anticoagulant tubes was subjected to DNA extraction using the Omega E.Z.N.A. Blood DNA Maxi Kit (Omega Bio-Tek), following the manufacturer’s instructions for up to 10 ml whole blood and using a total of 650 μl of elution buffer. Each round of extractions included a negative (no-template) control comprised of 10 ml PBS. The concentration of DNA in the eluted solution was quantified after each extraction using an Epoch microplate spectrophotometer (BioTek).
DNA from each sample was then subjected to a series of two qPCR assays for detection of T. cruzi satellite DNA. The first qPCR used the cruzi 1, 2 primer set and cruzi 3 TaqMan probe as previously described, [54], using BioRad iTaq Universal Probes Supermix (Bio-Rad). […] We selected FAM and VIC channels for each read.
On the technique in general: Quantitative PCR measures a nucleic acid by following its amplification.

The nature of series [5]: Pharmacokinetics in rats (IV and PO). More on the design: species or system rat. The conditions noted are these: in vivo. As for the experimental part: Rat IV (2 mg/kg) Rat PO (10 mg/kg)
Cl (mL/h/kg) 2258 AUC0-last (hr*µg/mL) 3.34
AUC0-last (hr*µg/mL) 0.883
for AN15368 in rats. Data are presented as mean values +/- SEM; n= 3 animals.

Series [6] is described as follows: Plasma protein binding (rat). The format is in vitro ADME.
A further series is described as follows: NHP bodyweights. The format is in vivo, rhesus macaques (Macaca mulatta). The note with it: individual treated macaques.
Series [7] concerns TcCBP KO T. cruzi intracellular amastigotes. The experiment in a line: microbe, parasite or virus in culture. The conditions noted are these: Trypanosoma cruzi, read-out: TcCBP KO IC50. The format is cell-based. The method, then: as §1
The CBPs knockout was produced using ribonucleoprotein (RNP) complexes as previously described. Briefly, Brazil tdTomato strain epimastigotes were electroporated with RNP complexes containing SaCas9 and an sgRNA targeting CBP gene TcBrA4_0048170, plus a repair template containing stop codons in all three reading frames and the M13 sequence for use as a PCR anchor. The sgRNA targeted the ‘[…]” sequence. After 2 days of recovery, single-cell clones were derived by depositing epimastigotes into a 96-well plate at a density of 0.5 cell/well by using a MoFlo Astrios EQ cell sorter (Beckman Coulter). DNA isolation was performed for clones, and primer pair of 5’-[…]-3’ and 5’- […] -3’ was used for amplifying the wild type allele, while primer pair of M13-F: 5’- […] -3’ and 5’- […] -3’ was used for amplifying the mutant allele.

Broadly, the IC50 is the concentration that inhibits the measured activity by half. One may read the AUC(0-t) as exposure summed from dosing to a finite time, without extrapolation to infinity. Low values mean less exposure, high ones more exposure. What is called Cmax is the peak of the concentration-time curve. By bioavailability is commonly meant dose-corrected exposure relative to a reference, in per cent. High values mean much systemic uptake, low ones little systemic uptake.

Several values for one entry are separate records, joined by “and”; a condition that tells them apart may be missing. Equal entries are not always repeated. Where two headings read alike, the source gives them in different places.

Description for NHP bodyweights: Under light-anesthesia/sedation, peripheral blood samples were collected from each animal prior to treatment and at 7 time points following. Blood analysis (CBC and serum chemistry assays) and physical exams to evaluate the health of the study animals were performed on each animal prior to the beginning of the study and also at three time points during the treatment protocol (see Supplementary data).

With `Cc1c(C(=O)NC(C(=O)OCc2ccc(F)c(F)c2)C(C)C)ccc2c1B(O)OC2` (centres unmarked) [AN14353], the IC50 in series [1] (WT extracellular amastigotes, Fig. 2c, read-out: WT IC50) worked out at 0.5 nM; in series [1] (extracellular amastigotes, Fig. 2a, read-out: Extracellular IC50), 0.1 nM. Further, the “impact of metallocarboxypeptidase 2 disruption on activity” value in series [2] is “Lack of impact”.
For the compound `Cc1c(C(=O)N[C@H](C(=O)OCC2CCOCC2)C(C)C)ccc2c1B(O)OC2` [AN15368], the “culture of parasites from blood (in words)” value in series [3] is “negative”. Also, the “parasite DNA in blood (in words)” value in series [4] (30 mg/kg/day oral 60 days, all time points after end of treatment) is reported as “negative”. In series [4] (naturally infected NHPs, 30 mg/kg/day 60 days), this compound displayed an efficacy / cure of 100%. Also, the exposure AUC(0-t) in series [5] (Rat IV (2 mg/kg)) came to 883 ng·h/mL; in series [5] (Rat PO (10 mg/kg)) it was 3340 ng·h/mL. The Cmax stood at 1700 ± 200 ng/mL in series [5] (Rat IV (2 mg/kg)) and 2100 ± 290 ng/mL in series [5] (Rat PO (10 mg/kg)). In addition, the clearance in series [5] (Rat IV (2 mg/kg)) is 37.6 mL/min/kg. Besides, the Vd in series [5] (Rat IV (2 mg/kg), read-out: Vss) is 1.11 L/kg. The compound further had a bioavailability in series [5] (Rat PO (10 mg/kg)) of 76.1%. In series [6], the “Funbound (rat)” value was found to be 10%. In addition, in the series “NHP bodyweights”, the “bodyweight at end of study (remark)” value was “Weighed less at end of study”. The “Bodyweights” value in the series “NHP bodyweights” (weighing 2017-09-11/12) is 6.37 kg and 8.90 kg and 7.40 kg and 5.20 kg and 6.40 kg and 6.70 kg and 7.70 kg and 7.60 kg and 7.10 kg and 6.30 kg and 7.20 kg and 7.30 kg; in the series “NHP bodyweights” (weighing 2017-10-18/19), 7.00 kg and 9.40 kg and 7.50 kg and 5.30 kg and 6.60 kg and 7.10 kg and 8.00 kg and 7.70 kg and 7.20 kg and 6.40 kg; in “NHP bodyweights” (weighing 2017-11-16), 7.30 kg and 9.70 kg and 7.70 kg and 5.50 kg and 6.90 kg and 8.30 kg and 7.00 kg and 6.70 kg and 7.90 kg; in the series “NHP bodyweights” (weighing 2017-12-05/06), 7.50 kg and 9.70 kg and 7.80 kg and 5.80 kg and 6.90 kg and 7.10 kg and 8.10 kg and 7.00 kg and 8.40 kg; in “NHP bodyweights” (weighing 2017-12-19/20), 7.50 kg and 9.70 kg and 7.60 kg and 5.50 kg and 6.50 kg and 6.70 kg and 8.10 kg and 7.40 kg and 6.60 kg and 7.90 kg and 7.70 kg; in “NHP bodyweights” (weighing 2018-01-08/09), 7.60 kg and 9.80 kg and 7.80 kg and 5.40 kg and 6.60 kg and 6.80 kg and 8.20 kg and 6.90 kg and 7.00 kg. Besides, the “Bodyweights” value in “NHP bodyweights” (weighing 2018-01-22/23) was 7.60 kg and 9.95 kg and 7.90 kg and 5.60 kg and 6.80 kg and 7.15 kg and 8.25 kg and 7.65 kg and 6.85 kg and 8.10 kg and 8.20 kg; in “NHP bodyweights” (weighing 2018-02-26/27), 8.05 kg and 10.20 kg and 7.90 kg and 5.70 kg and 6.95 kg and 7.25 kg and 8.45 kg and 7.80 kg and 7.30 kg and 8.35 kg and 8.25 kg; in the series “NHP bodyweights” (weighing 2018-03-26/27) it was 8.00 kg and 10.15 kg and 5.75 kg and 7.00 kg and 7.55 kg and 8.65 kg and 7.85 kg and 6.95 kg and 7.50 kg and 8.20 kg and 8.75 kg; in the series “NHP bodyweights” (weighing 2018-04-09/10/11), 7.95 kg and 10.20 kg and 8.10 kg and 5.90 kg and 6.85 kg and 7.15 kg and 8.70 kg. Moreover, in series [7], the IC50 turned out to be 2500 nM.

These data come from publication PMC9519446, “Discovery of an Orally Active Benzoxaborole Prodrug Effective in the Treatment of Chagas Disease in Non-human Primates” (Nature microbiology, 2022).
